In patent US11484607B2, “PSMA-targeted NIR dyes and their uses” (On Target Laboratories, LLC, priority 2015, dated 2022):

Biological target: T1, PSMA (Homo sapiens, UniProt Q04609)
T1 construct: host or cells: 22Rv1 human prostate cancer cells
Experiment: Relative binding affinity of DUPA-NIR conjugates with respect to DUPA-FITC on 22Rv1 cells, flow cytometry
Details: for Kd: 1 h at 37° C., 100 nM DUPA-FITC; for affinity for PSMA (in words): in vitro binding affinity data
Experimental: (§1) FIG. 3—Relative binding affinities of DUPA-NIR conjugates 1-9 with respect to DUPA-FITC (14). PSMA-positive 22Rv1 human prostate cancer cells were incubated for 1 h at 37° C. in the presence of 100 nM DUPA-FITC with increasing concentrations of DUPA-NIR conjugates. […] Cell bound fluorescence was assayed as using flow cytometry.
as §1, with “6—Relative” for “3—Relative”, “with aromatic amino acids linkers” for “1-9”
as §1, with “3 Relative” for “3—Relative”
in vitro studies. […] PSMA-positive 22Rv1 human prostate cancer cells were incubated for 1 h at 37° C. in the presence of 100 nM DUPA-FITC with increasing concentrations of DUPA-NIR conjugates. […] Cell bound fluorescence was assayed as using flow cytometry.
PSMA-positive 22Rv1 human prostate cancer cells were incubated for 1 h at 37° C. in the presence of 100 nM DUPA-FITC with increasing concentrations of DUPA-NIR conjugates. […] Cell bound fluorescence was assayed as using flow cytometry.
as §1, with “24: Relative” for “3—Relative”, “conjugates” for “conjugates 1-9”
PSMA-positive 22Rv1 human prostate cancer cells were incubated for 1 h at 37° C. in the presence of 100 nM DUPA-FITC with increasing concentrations of DUPA-NIR conjugates. […] Cell bound fluorescence was assayed as using flow cytometry
Cancer cells were incubated for 1 h at 37° C. in the presence of 100 nM DUPA-FITC with increasing concentrations of compound 15. […] Cell bound fluorescence was assayed as using flow cytometry.

[1] = Example 5, variably charged NIR dye
[2] = conjugates with variable length spacers
[3] = conjugates with aromatic linkers

T1 sequence (Q04609 whole entry): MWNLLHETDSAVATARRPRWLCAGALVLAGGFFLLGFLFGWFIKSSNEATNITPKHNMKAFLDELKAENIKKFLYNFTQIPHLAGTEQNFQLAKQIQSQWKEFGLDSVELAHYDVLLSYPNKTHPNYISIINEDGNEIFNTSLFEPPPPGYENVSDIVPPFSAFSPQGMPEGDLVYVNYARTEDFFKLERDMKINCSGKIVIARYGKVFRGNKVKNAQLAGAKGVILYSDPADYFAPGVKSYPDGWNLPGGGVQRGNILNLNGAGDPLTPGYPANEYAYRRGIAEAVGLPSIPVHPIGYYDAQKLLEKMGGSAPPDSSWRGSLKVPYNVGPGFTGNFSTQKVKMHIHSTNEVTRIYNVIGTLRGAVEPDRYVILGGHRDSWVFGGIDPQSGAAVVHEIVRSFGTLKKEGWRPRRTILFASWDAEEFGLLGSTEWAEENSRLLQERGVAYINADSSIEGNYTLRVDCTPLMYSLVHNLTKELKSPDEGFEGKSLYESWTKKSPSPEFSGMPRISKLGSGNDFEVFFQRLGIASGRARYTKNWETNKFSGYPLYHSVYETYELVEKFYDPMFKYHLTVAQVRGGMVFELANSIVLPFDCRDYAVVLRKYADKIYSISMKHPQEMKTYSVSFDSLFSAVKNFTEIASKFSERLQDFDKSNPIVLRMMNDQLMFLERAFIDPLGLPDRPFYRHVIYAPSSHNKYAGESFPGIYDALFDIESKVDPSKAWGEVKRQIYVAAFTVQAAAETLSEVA

Row | SMILES | Kd [2] [nM] | affinity for PSMA (in words) | further results
1 | CC1(C)C(/C=C/C2=C(Oc3ccc(C[C@H](NC(=O)[C@H](Cc4ccccc4)NC(=O)CCCCCCCNC(=O)CC[C@H](NC(=O)N[C@@H](CCC(=O)O)C(=O)O)C(=O)O)C(=O)O)cc3)C(=C/C=C3/N(CCC[N+](C)(C)C)c4ccc(S(=O)(=O)O)cc4C3(C)C)/CCC2)=[N+](CCC[N+](C)(C)C)c2ccc(S(=O)(=O)O)cc21 [Compound 60] | – | – | Kd [1]: 5.4 nM
2 | CC1(C)C(/C=C/C2=C(Oc3ccc(C[C@H](NC(=O)[C@H](Cc4ccccc4)NC(=O)CCCCCCCNC(=O)CC[C@H](NC(=O)N[C@@H](CCC(=O)O)C(=O)O)C(=O)O)C(=O)O)cc3)C(=C/C=C3/N(CCC[N+](C)(C)C)c4ccccc4C3(C)C)/CCC2)=[N+](CCC[N+](C)(C)C)c2ccccc21 [Compound 59] | – | – | Kd [1]: 60.9 nM
3 | CC1(C)C(/C=C/C2=C(Oc3ccc(C[C@H](NC(=O)CC[C@H](NC(=O)N[C@@H](CCC(=O)O)C(=O)O)C(=O)O)C(=O)O)cc3)C(=C/C=C3/N(CCCCS(=O)(=O)O)c4ccc(S(=O)(=O)O)cc4C3(C)C)/CCC2)=[N+](CCCCS(=O)(=O)[O-])c2ccc(S(=O)(=O)O)cc21 [Compound 1] | 142 | low affinity | –
4 | CC1(C)C(/C=C/C2=C(Oc3ccc(C[C@H](NC(=O)CCCCCCCNC(=O)[C@H](Cc4ccccc4)NC(=O)CC[C@H](NC(=O)N[C@@H](CCC(=O)O)C(=O)O)C(=O)O)C(=O)O)cc3)C(=C/C=C3/N(CCCCS(=O)(=O)O)c4ccc(S(=O)(=O)O)cc4C3(C)C)/CCC2)=[N+](CCCCS(=O)(=O)[O-])c2ccc(S(=O)(=O)O)cc21 [Compound 5] | 12.2 | very high affinity | –
5 | CN1/C(=C/C=C2\CCCC(/C=C/C3=[N+](C)c4ccccc4C3(C)C)=C2Oc2ccc(C[C@H](NC(=O)[C@H](Cc3ccccc3)NC(=O)CCCCCCCNC(=O)CC[C@H](NC(=O)N[C@@H](CCC(=O)O)C(=O)O)C(=O)O)C(=O)O)cc2)C(C)(C)c2ccccc21 [Compound 55] | – | very high affinity | Kd [1]: 7.3 nM
6 | CC1(C)C(/C=C/C2=C(Oc3ccc(C[C@H](NC(=O)[C@H](Cc4ccccc4)NC(=O)[C@H](Cc4ccccc4)NC(=O)CCCCCCCNC(=O)C[C@H](NC(=O)CC[C@H](NC(=O)N[C@@H](CCC(=O)O)C(=O)O)C(=O)O)C(=O)O)C(=O)O)cc3)C(=C/C=C3/N(CCCCS(=O)(=O)O)c4ccc(S(=O)(=O)O)cc4C3(C)C)/CCC2)=[N+](CCCCS(=O)(=O)[O-])c2ccc(S(=O)(=O)O)cc21 [Compound 8] | 23.2 | – | –
7 | CC1(C)C(/C=C/C2=C(Oc3ccc(C[C@H](NC(=O)CCCCCCCNC(=O)CCCCCCCNC(=O)CC[C@H](NC(=O)N[C@@H](CCC(=O)O)C(=O)O)C(=O)O)C(=O)O)cc3)C(=C/C=C3/N(CCCCS(=O)(=O)O)c4ccc(S(=O)(=O)O)cc4C3(C)C)/CCC2)=[N+](CCCCS(=O)(=O)[O-])c2ccc(S(=O)(=O)O)cc21 [Compound 9] | 17.2 | – | –
8 | CC1(C)C(/C=C/C2=C(Oc3ccc(C[C@H](NC(=O)CCCCCCCNC(=O)[C@H](Cc4ccccc4)NC(=O)[C@H](Cc4ccccc4)NC(=O)CCCCCCCNC(=O)CC[C@H](NC(=O)N[C@@H](CCC(=O)O)C(=O)O)C(=O)O)C(=O)O)cc3)C(=C/C=C3/N(CCCCS(=O)(=O)O)c4ccc(S(=O)(=O)O)cc4C3(C)C)/CCC2)=[N+](CCCCS(=O)(=O)[O-])c2ccc(S(=O)(=O)O)cc21 [Compound 34] | – | – | Kd [3]: 34.9 nM
9 | CC1(C)C(/C=C/C2=C(Oc3ccc(C[C@H](NC(=O)C[C@H](NC(=O)CC[C@H](NC(=O)N[C@@H](CCC(=O)O)C(=O)O)C(=O)O)C(=O)O)C(=O)O)cc3)C(=C/C=C3/N(CCCCS(=O)(=O)O)c4ccc(S(=O)(=O)O)cc4C3(C)C)/CCC2)=[N+](CCCCS(=O)(=O)[O-])c2ccc(S(=O)(=O)O)cc21 [Compound 3] | 9.71 | very high affinity | –
10 | CC1(C)C(/C=C/C2=C(Oc3ccc(C[C@H](NC(=O)[C@H](Cc4c[nH]c5ccccc45)NC(=O)CCCCCCCNC(=O)CC[C@H](NC(=O)N[C@@H](CCC(=O)O)C(=O)O)C(=O)O)C(=O)O)cc3)C(=C/C=C3/N(CCCCS(=O)(=O)O)c4ccc(S(=O)(=O)O)cc4C3(C)C)/CCC2)=[N+](CCCCS(=O)(=O)[O-])c2ccc(S(=O)(=O)O)cc21 [Compound 33] | – | – | Kd [3]: 16 nM
11 | CC1(C)C(/C=C/C2=C(SC[C@H](NC(=O)[C@H](Cc3ccccc3)NC(=O)[C@H](Cc3ccccc3)NC(=O)CCCCCCCNC(=O)CC[C@H](NC(=O)N[C@@H](CCC(=O)O)C(=O)O)C(=O)O)C(=O)O)C(=C/C=C3/N(CCCCS(=O)(=O)O)c4ccc(S(=O)(=O)O)cc4C3(C)C)/CCC2)=[N+](CCCCS(=O)(=O)[O-])c2ccc(S(=O)(=O)O)cc21 [Compound 27] | – | – | Kd [3]: 22.2 nM
12 | CC1(C)C(=CC=C2CCCC(C=CC3=[N+](CCCCS(=O)(=O)[O-])c4ccccc4C3(C)C)=C2Oc2ccc(CC(NC(=O)C(CCCNC(=N)N)NC(=O)C(CCCNC(=N)N)NC(=O)CCCCCCCNC(=O)CCC(NC(=O)NC(CCC(=O)O)C(=O)O)C(=O)O)C(=O)O)cc2)N(CCCCS(=O)(=O)O)c2ccccc21 (stereo not drawn) [Compound 66] | – | low affinity | –
13 | CC1(C)C(/C=C/C2=C(Oc3ccc(CCNC(=O)CC[C@H](NC(=O)N[C@@H](CCC(=O)O)C(=O)O)C(=O)O)cc3)C(=C/C=C3/N(CCCCS(=O)(=O)O)c4ccc(S(=O)(=O)O)cc4C3(C)C)/CCC2)=[N+](CCCCS(=O)(=O)[O-])c2ccc(S(=O)(=O)O)cc21 [Compound 2] | 113 | low affinity | –
14 | CC1(C)C(/C=C/C2=C(Oc3ccc(C[C@H](NC(=O)[C@H](Cc4ccccc4)NC(=O)CCCCCCCNC(=O)CC[C@H](NC(=O)N[C@@H](CCC(=O)O)C(=O)O)C(=O)O)C(=O)O)cc3)C(=C/C=C3/N(CCCCS(=O)(=O)O)c4ccccc4C3(C)C)/CCC2)=[N+](CCCCS(=O)(=O)[O-])c2ccccc21 [Compound 54] | – | – | Kd [1]: 2.6 nM
15 | CC1(C)C(=CC=C2CCCC(C=CC3=[N+](CCCCS(=O)(=O)[O-])c4ccccc4C3(C)C)=C2Oc2ccc(CC(NC(=O)C(CCCNC(=N)N)NC(=O)C(Cc3ccccc3)NC(=O)CCCCCCCNC(=O)CCC(NC(=O)NC(CCC(=O)O)C(=O)O)C(=O)O)C(=O)O)cc2)N(CCCCS(=O)(=O)O)c2ccccc21 (stereo not drawn) [Compound 65] | – | low affinity | –
16 | CC1(C)C(=CC=C2CCOC(C=CC3=[N+](CCCCS(=O)(=O)[O-])c4ccc(S(=O)(=O)O)cc4C3(C)C)=C2c2ccc(C(=O)NCCNC(=O)C(Cc3ccccc3)NC(=O)CCCCCCCNC(=O)CCC(NC(=O)NC(CCC(=O)O)C(=O)O)C(=O)O)cc2)N(CCCCS(=O)(=O)O)c2ccc(S(=O)(=O)O)cc21 (stereo not drawn) [Compound 62] | – | low affinity | –
17 | CN1/C(=C/C=C2\CCCC(/C=C/C3=[N+](C)c4ccc(S(=O)(=O)[O-])cc4C3(C)C)=C2Oc2ccc(C[C@H](NC(=O)[C@H](Cc3ccccc3)NC(=O)CCCCCCCNC(=O)CC[C@H](NC(=O)N[C@@H](CCC(=O)O)C(=O)O)C(=O)O)C(=O)O)cc2)C(C)(C)c2cc(S(=O)(=O)O)ccc21 [Compound 56] | – | very high affinity | Kd [1]: 3.7 nM
18 | CC1(C)C(/C=C/C2=C(Oc3ccc(C[C@H](NC(=O)[C@H](Cc4c[nH]cn4)NC(=O)CCCCCCCNC(=O)CC[C@H](NC(=O)N[C@@H](CCC(=O)O)C(=O)O)C(=O)O)C(=O)O)cc3)C(=C/C=C3/N(CCCCS(=O)(=O)O)c4ccc(S(=O)(=O)O)cc4C3(C)C)/CCC2)=[N+](CCCCS(=O)(=O)[O-])c2ccc(S(=O)(=O)O)cc21 [Compound 32] | – | – | Kd [3]: 32 nM
